How the values were obtained:
[1] = test system: NCI-H2228 nude mice xenografts; assay: In-vivo pharmacodynamic evaluation, NCI-H2228 subcutaneous xenograft; conditions: 14 days, day 21
Experimental: In-Vivo Pharmacodynamic Evaluation
SCID Beige mice, female, 5-6 weeks old, weighed 18+2 g, purchased from Beijing HFK Bioscience Co., Ltd., bred in an SPF level environment.
NCI-H2228 cells were cultured in PRMI-1640 containing 10% fetal bovine serum (FBS) and 1% sodium pyruvate. The cells were cultured in an incubator at 37° C. with 5% CO2.
Establishment of subcutaneous tumor transplantation model in nude mice by cell inoculation: Tumor cells in logarithmic growth phase were collected, counted and re-suspended in PRMI-1640 basal medium. Matrigel was added at a ratio of 1:1, and the concentration of the cell suspension was adjusted to 6×10^7/ml. Tumor cells were subcutaneously inoculated to the right back of nude mice in an amount of 6×10^6/0.1 mL/mouse using a 1 mL syringe (with a […]).
When the tumor volume reached about 200 mm^3, the animals were randomly grouped according to randomized block method, so that the difference in tumor volume of each group was within 10% of the mean. There were 5 groups in total, each having 8 animals. The day of grouping was recorded as Day 0, and the animals were administered immediately after grouping. Compound I-3 of the present invention and Ceritinib were orally administered once a day for consecutive 14 days, and then observed for 7 days. The weight and tumor size of the animals were measured twice a week during the experiment. The clinical symptoms were observed and recorded daily. After the animals were weighed for the last time on Day 21, they were sacrificed by euthanization with CO2. The tumors were taken, weighed and photographed, and the average tumor size was calculated, to investigate the growth inhibitory effect of the test substance Compound I-3 on human lung cancer NCI-H2228 nude mice xenografts under the experimental conditions.
When the tumor in the tumor-bearing mice grew to a measurable size, the mice were randomly divided into 5 groups according to the principle of equal mean tumor volume using SPSS 17.0 software. Compound I-3 was administered by intragastric administration at a dosage of 30, 10, and 3 mg/kg per day. The positive control ceritinib was administered by intragastric administration at a dose of 10 mg/kg per day in a volume of 0.1 ml/10 g. These agents were administered once a day for consecutive 14 days. The animals in the negative control group were given an equal amount of solvent (1% DMSO in physiological saline). During the administration and recovery periods, the body weight and tumor size of the mice were measured 2-3 times per week. The tumor volume and relative tumor volume were calculated based on the measured data. The tumor volume (TV) was calculated by a formula below: TV=1/2×a×b^2, where a and b represent the major and minor diameters of the tumor, respectively. According to the measurement results, the relative tumor volume (RTV) was calculated, by a formula below: RTV=Vt/V0, where V0 is the tumor volume at the start of the experiment, and Vt is the tumor volume measured each time.

[2] = target: ALK enzyme (Homo sapiens, UniProt Q9UM73); assay: In-vitro ALK kinase inhibitory activity (HTRF kinEASE TK kit); assay type: biochemical; conditions: inhibitory activity for ALK enzyme, read-out: IC50 range
Chain of ALK enzyme (Q9UM73 19-1620 limits assumed): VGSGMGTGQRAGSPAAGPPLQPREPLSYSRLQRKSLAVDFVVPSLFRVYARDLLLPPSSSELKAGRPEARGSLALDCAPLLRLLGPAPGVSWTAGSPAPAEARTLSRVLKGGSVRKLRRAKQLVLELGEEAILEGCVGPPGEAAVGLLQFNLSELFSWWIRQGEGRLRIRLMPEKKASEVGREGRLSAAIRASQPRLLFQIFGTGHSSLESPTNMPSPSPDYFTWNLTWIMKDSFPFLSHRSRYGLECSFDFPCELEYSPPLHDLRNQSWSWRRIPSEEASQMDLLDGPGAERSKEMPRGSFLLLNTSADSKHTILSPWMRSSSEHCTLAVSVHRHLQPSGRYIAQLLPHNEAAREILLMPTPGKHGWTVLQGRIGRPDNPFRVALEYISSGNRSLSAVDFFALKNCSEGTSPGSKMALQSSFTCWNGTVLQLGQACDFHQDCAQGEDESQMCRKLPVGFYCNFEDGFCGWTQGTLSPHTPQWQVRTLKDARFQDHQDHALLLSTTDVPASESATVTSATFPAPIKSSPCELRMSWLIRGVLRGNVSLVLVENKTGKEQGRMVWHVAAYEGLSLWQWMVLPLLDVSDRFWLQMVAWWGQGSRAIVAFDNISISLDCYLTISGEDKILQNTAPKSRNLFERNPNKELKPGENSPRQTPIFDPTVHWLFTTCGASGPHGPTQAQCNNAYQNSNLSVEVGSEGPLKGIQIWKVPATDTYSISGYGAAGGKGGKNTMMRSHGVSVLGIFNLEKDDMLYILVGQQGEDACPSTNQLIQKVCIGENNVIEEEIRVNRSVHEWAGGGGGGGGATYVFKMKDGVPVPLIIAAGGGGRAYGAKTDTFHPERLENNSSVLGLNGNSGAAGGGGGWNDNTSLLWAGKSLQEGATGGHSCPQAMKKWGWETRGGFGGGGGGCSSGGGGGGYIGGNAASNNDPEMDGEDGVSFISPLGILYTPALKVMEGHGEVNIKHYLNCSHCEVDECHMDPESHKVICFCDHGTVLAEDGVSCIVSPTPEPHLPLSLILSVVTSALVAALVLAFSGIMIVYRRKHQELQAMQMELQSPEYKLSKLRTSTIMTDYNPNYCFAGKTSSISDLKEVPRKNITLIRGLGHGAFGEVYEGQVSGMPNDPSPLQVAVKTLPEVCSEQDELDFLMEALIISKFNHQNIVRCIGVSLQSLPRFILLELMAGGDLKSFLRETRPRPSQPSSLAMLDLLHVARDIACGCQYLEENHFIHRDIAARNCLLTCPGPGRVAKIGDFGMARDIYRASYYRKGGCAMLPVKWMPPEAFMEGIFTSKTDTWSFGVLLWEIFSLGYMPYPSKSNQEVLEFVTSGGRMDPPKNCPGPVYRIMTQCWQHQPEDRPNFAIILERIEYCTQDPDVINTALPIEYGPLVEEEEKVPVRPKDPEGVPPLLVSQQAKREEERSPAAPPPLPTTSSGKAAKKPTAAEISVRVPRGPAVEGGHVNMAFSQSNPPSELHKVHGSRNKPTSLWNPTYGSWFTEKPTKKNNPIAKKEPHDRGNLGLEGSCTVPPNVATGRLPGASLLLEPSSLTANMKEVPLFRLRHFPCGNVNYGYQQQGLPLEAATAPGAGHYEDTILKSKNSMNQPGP
Experimental: Anaplastic Lymphoma Kinase (ALK) Inhibitory Activity The in-vitro kinase assay was performed using the HTRF kinEASE TK kit available from Cisbio. The operation steps are indicated in the instructions of the kit. This method was used to detect the inhibitory effect of the compound to be tested on the activity of ALK enzymes in vitro, including wild-type ALK (Cat.PV3867, Invitrogen), ALK L1196M (Cat. PV6168, Life technologies), and ALK F1174L (Cat. PV6160, Life technologies). The specific operation steps were as follows. […] In addition to the control wells, 4 μL of the diluted compound solution to be tested was added to the reaction wells, and 4 μL of the 2.5% DMSO solution corresponding to the ALK enzyme previously formulated was added to the control wells. (2) 2 μL of a TK-biotin substrate solution previously formulated in a substrate concentration corresponding to the ALK enzyme was added to all reaction wells. (3) 2 μL of a previously prepared enzyme solution of corresponding concentration was added to all the reaction wells except the negative wells, and 2 μL of the 1× kinase buffer corresponding to the enzyme was added to the negative wells to make up the volume. The plate was sealed with a membrane, and incubated for 10 min at room temperature after mixing uniformly, such that the compounds were bond to the enzyme fully. (4) 2 μL of an ATP solution in a concentration corresponding to the ALK enzyme was added to all the reaction wells to initiate the kinase reaction, where the enzyme reaction time by ALK was 60 minutes. (5) An ALK test solution was prepared 5 minutes before the end of the kinase reaction. Streptavidin-XL665 and TK antibody europium cryptate (1:100) solutions for assay having a concentration corresponding to the enzyme were prepared using the detection buffer in the kit. (6) After the completion of the kinase reaction, 5 μl of diluted Streptavidin-XL665 was added to all the reaction wells respectively, and mixed uniformly, and then the diluted TK antibody europium cryptate solution for assay was added immediately. (7) The plate was sealed, mixed uniformly and allowed to react at room temperature for 1 h. The fluorescence signal (excitation at 320 nm, and emission at 665 nm and 615 nm) was detected using the ENVISION instrument (Perkinelmer). The inhibition rate for each well was calculated from the values of the fully active wells and the background signal wells. The values of replicated wells were averaged, and the half-maximal inhibitory activity (IC50) of each compound to be tested was fitted with a professional drawing analysis software PRISM 5.0.

IC50 [2] | Structure (SMILES) | also measured
– | [2H]C([2H])([2H])Oc1cc(C2CCNCC2)c(C)cc1Nc1ncc(Cl)c(Nc2ccccc2S(=O)(=O)C(C)C)n1 [Compound I-3, 5-chloro-N4-(2-(isopropylsulfonyl)phenyl)-N2-(2-D3-methoxy-5-methyl-4-(piperidin-4-yl)phenyl)pyrimidin-2,4-diamine] | IR (%) ([1]; 3 mg/kg qd intragastric): 12.86%; RTV d21 ([1]; 3 mg/kg qd intragastric): 3.12 ± 0.23; T/C (%) ([1]; 3 mg/kg qd intragastric): 77.45%; IR (%) ([1]; 10 mg/kg qd intragastric): 53.39%; RTV d21 ([1]; 10 mg/kg qd intragastric): 1.70 ± 0.20; T/C (%) ([1]; 10 mg/kg qd intragastric): 45.33%; IR (%) ([1]; 30 mg/kg qd intragastric): 77.14%; RTV d21 ([1]; 30 mg/kg qd intragastric): 0.79 ± 0.17; T/C (%) ([1]; 30 mg/kg qd intragastric): 21.07%
1 to 10 nM | COc1cc(C2CCNCC2)c(Cl)cc1Nc1ncc(Cl)c(Nc2ccccc2S(=O)(=O)C(C)C)n1 [Compound I-18, 5-chloro-N2-(5-chloro-2-D3-methoxy-4-(piperidin-4-yl)phenyl)-N4-(2-(isopropylsulfonyl)phenyl)pyrimidin-2,4-diamine] | –
1 to 10 nM | COc1cc(N2CCNCC2)ccc1Nc1ncnc(Nc2ccccc2S(=O)(=O)C(C)C)n1 [Compound I-41, N2-(2-D3-methoxy-4-(piperazin-1-yl)phenyl)-N4-(2-(isopropylsulfonyl)phenyl)-1,3,5-triazin-2,4-diamine] | –
1 to 10 nM | COc1cc(N2CCNCC2)c(C)cc1Nc1ncnc(Nc2ccccc2S(=O)(=O)C(C)C)n1 [Compound I-42, N2-(2-D3-methoxy-4-(piperazin-1-yl)-5-methyl-phenyl)-N4-(2-(isopropylsulfonyl)phenyl)-1,3,5-triazin-2,4-diamine] | –
1 to 10 nM | COc1cc(N2CCC(N3CCSCC3)CC2)ccc1Nc1ncc(Cl)c(Nc2ccccc2S(=O)(=O)C(C)C)n1 [Compound I-33, 5-chloro-N4-(2-(isopropylsulfonyl)phenyl)-N2-(2-D3-methoxy-4-(4-thiomorpholinopiperidin-1-yl)phenyl)pyrimidin-2,4-diamine] | –
1 to 10 nM | C#Cc1cnc(Nc2cc(C)c(C3CCNCC3)cc2OC)nc1Nc1ccccc1S(=O)(=O)C(C)C [Compound I-13, 5-ethynyl-N4-(2-(isopropylsulfonyl)phenyl)-N2-(2-D3-methoxy-5-methyl-4-(piperidin-4-yl)phenyl)pyrimidin-2,4-diamine] | –
1 to 10 nM | CCc1cnc(Nc2cc(C)c(C3CCNCC3)cc2OC)nc1Nc1ccccc1S(=O)(=O)C(C)C [Compound I-9, 5-ethyl-N4-(2-(isopropylsulfonyl)phenyl)-N2-(2-D3-methoxy-5-methyl-4-(piperidin-4-yl)phenyl)pyrimidin-2,4-diamine] | –
1 to 10 nM | COc1cc(N2CCC(N3CCOCC3)CC2)ccc1Nc1ncc(Cl)c(Nc2ccccc2S(=O)(=O)C(C)C)n1 [Compound I-35, 5-chloro-N4-(2-(isopropylsulfonyl)phenyl)-N2-(2-D3-methoxy-4-(4-morpholinopiperidin-1-yl)phenyl)pyrimidin-2,4-diamine] | –
10 to 100 nM | COc1cc(C2CCNCC2)c(C)cc1Nc1nc(Nc2ccccc2S(=O)(=O)C(C)C)c2cc[nH]c2n1 [Compound I-30, N4-(2-(isopropylsulfonyl)phenyl)-N2-(2-D3-methoxy-5-methyl-4-(piperidin-4-yl)phenyl)-7H-pyrrolo[2,3-d]pyrimidin-2,4-diamine] | –
10 to 100 nM | COc1cc(N2CCC(N(C)C)CC2)ccc1Nc1nc(Nc2ccccc2S(=O)(=O)C(C)C)c2sccc2n1 [Compound I-27, N2-(4-(4-(dimethylamino)piperidin-1-yl)-2-D3-methoxyphenyl)-N4-(2-(isopropylsulfonyl)phenyl)thieno[3,2-d]pyrimidin-2,4-diamine] | –
1 to 10 nM | COc1cc(C2CCNCC2)c(C)cc1Nc1ncnc(Nc2ccccc2S(=O)(=O)C(C)C)n1 [Compound I-40, N2-(2-(isopropylsulfonyl)phenyl)-N4-(2-D3-methoxy-5-methyl-4-(piperidin-4-yl)phenyl)-1,3,5-triazin-2,4-diamine] | –
10 to 100 nM | COc1cc(C2CCNCC2)c(C)cc1Nc1ncc(-c2ccccc2)c(Nc2ccccc2S(=O)(=O)C(C)C)n1 [Compound I-11, N4-(2-(isopropylsulfonyl)phenyl)-N2-(2-D3-methoxy-5-methyl-4-(piperidin-4-yl)phenyl)-5-phenylpyrimidin-2,4-diamine] | –
1 to 10 nM | COc1cc(N2CCC(N3CCN(C)CC3)CC2)ccc1Nc1ncnc(Nc2ccccc2S(=O)(=O)C(C)C)n1 [Compound I-43, N2-(2-(isopropylsulfonyl)phenyl)-N4-(2-D3-methoxy-4-(4-(4-methylpiperazin-1-yl)piperidin-1-yl)phenyl)-1,3,5-triazin-2,4-diamine] | –
1 to 10 nM | [2H]C([2H])([2H])Oc1cc(C2CCNCC2)c(C)cc1Nc1ncc(C(F)(F)F)c(Nc2ccccc2S(=O)(=O)C(C)C)n1 [Compound I-5, N4-(2-(isopropylsulfonyl)phenyl)-N2-(2-methoxy-5-methyl-4-(piperidin-4-yl)phenyl)-5-(trifluoromethyl)pyrimidin-2,4-diamine] | –
1 to 10 nM | COc1cc(C2CCNCC2)ccc1Nc1ncc(Cl)c(Nc2ccccc2S(=O)(=O)C(C)C)n1 [Compound I-15, 5-chloro-N2-(2-D3-methoxy-4-(piperidin-4-yl)phenyl)-N4-(2-(isopropylsulfonyl)phenyl)pyrimidin-2,4-diamine] | –

Source: US10647694B2, “Diphenylaminopyrimidine and triazine compound, and pharmaceutical composition and use thereof” (ARROMAX PHARMATECH CO., LTD., priority 2016, dated 2020)
